pIC50: −log10 of the molar value.

In general, pIC50 refers to the IC50 on a negative log10 scale, so that one unit is a factor of ten.

This assay concerns Aorta. Briefly: Vasorelaxant activity in Wister rat isolated thoracic aortic rings assessed as reduction of norepinephrine hydrochloride-induced contraction. The class given is functional, tissue-based.
Take `COc1ccc(-c2cc(-c3nc4ccccc4n3C)nc(OC)c2C#N)cc1`: the negative logarithm of the IC50 (pIC50) was 3.68.

With `CCOc1nc(-c2nc3ccccc3n2C)cc(-c2ccccc2)c1C#N`, the pIC50 is 3.44.

For the molecule `CCOc1nc(-c2nc3ccccc3n2C)cc(-c2ccc(OC)cc2)c1C#N`, the pIC50 is 3.36.

Turning to `COc1nc(-c2nc3ccccc3n2C)cc(-c2ccc(Cl)cc2Cl)c1C#N`, the pIC50 was 3.67.

In the case of `COc1nc(-c2nc3ccccc3n2C)cc(-c2ccc(Cl)cc2)c1C#N`, the pIC50 is 3.84.

As for `COc1nc(-c2nc3ccccc3n2C)cc(-c2cccs2)c1C#N`, the pIC50 is 3.51.

Take `CCOc1nc(-c2nc3ccccc3n2C)cc(-c2ccc(Cl)cc2Cl)c1C#N`: the pIC50 was 3.52.

Turning to `CCOc1nc(-c2nc3ccccc3n2C)cc(-c2ccc(F)cc2)c1C#N`, the pIC50 is 3.44.

For the molecule `COc1nc(-c2nc3ccccc3[nH]2)cc(-c2ccc(Cl)cc2)c1C#N`, the pIC50 is 3.54.

Consider `CCOc1nc(-c2nc3ccccc3n2C)cc(-c2ccc(Cl)cc2)c1C#N`, for which the pIC50 is 3.53.

As for `COc1nc(-c2nc3ccccc3n2C)cc(-c2ccc(C)cc2)c1C#N`, the pIC50 is 3.53.

As to `CCOc1nc(-c2nc3ccccc3n2C)cc(-c2cccs2)c1C#N`, the pIC50 is 3.60.

Turning to `CCOc1nc(-c2nc3ccccc3n2C)cc(-c2ccc(C)cc2)c1C#N`, the pIC50 is 3.40.

On to `COc1nc(-c2nc3ccccc3n2C)cc(-c2ccccc2)c1C#N`, for which the pIC50 is 3.52.

Consider `COc1nc(-c2nc3ccccc3n2C)cc(-c2ccc(F)cc2)c1C#N`, for which the pIC50 is 3.46.

With `COc1nc(-c2nc3ccccc3n2C)cc(-c2ccc(C)o2)c1C#N`, the pIC50 was 3.55.

For `COc1nc(-c2nc3ccccc3[nH]2)cc(-c2ccc(C)o2)c1C#N`, the pIC50 is 3.69.

Turning to `CCOc1nc(-c2nc3ccccc3n2C)cc(-c2ccc(C)o2)c1C#N`, the pIC50 is 3.47.

The values are drawn from ChEMBL document CHEMBL2390873, “Rational design, synthesis and QSAR study of vasorelaxant active 3-pyridinecarbonitriles incorporating 1H-benzimidazol-2-yl function” (Eur J Med Chem, 2013).
